In patent US5756502A, “Quinazolinone derivatives as cholyecystokinin (CCK) ligands” (Warner-Lambert Company, priority 1995, dated 1998):
Read-outs that look alike come from different tables or passages of the source.

Legend:
[1] = biological target: T1, CCK-B receptor (Mus musculus, UniProt P56481); assay: CCK-B receptor binding (displacement of tritiated-pentagastrin from mouse cerebral cortical membranes)
T1 construct: from tissue; host or cells: cerebral cortex of male CFLP mice (membranes)
T1 sequence (P56481 1-453): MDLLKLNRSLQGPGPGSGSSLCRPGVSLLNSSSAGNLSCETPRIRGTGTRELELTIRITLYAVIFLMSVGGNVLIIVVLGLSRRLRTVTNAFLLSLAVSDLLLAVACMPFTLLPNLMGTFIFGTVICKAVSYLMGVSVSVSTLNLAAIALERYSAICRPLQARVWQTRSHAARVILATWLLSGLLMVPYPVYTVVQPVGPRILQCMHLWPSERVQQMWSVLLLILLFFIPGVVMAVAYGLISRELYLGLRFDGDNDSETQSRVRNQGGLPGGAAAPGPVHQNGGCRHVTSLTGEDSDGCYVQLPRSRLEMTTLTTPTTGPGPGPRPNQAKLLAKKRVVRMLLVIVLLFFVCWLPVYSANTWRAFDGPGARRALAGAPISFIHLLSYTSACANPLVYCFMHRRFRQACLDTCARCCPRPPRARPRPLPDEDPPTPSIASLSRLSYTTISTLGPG
Description: (§1) The biological activity of compounds of the present invention may be evaluated by employing an initial screening test which rapidly and accurately measures the binding of the tested compound to known CCK receptor sites. […] (See Hays, et al., Neuropeptides 1:53-62, 1980; and Satuer, et al., Science 208:1155-1156, 1980).
In this screening test, the cerebral cortices taken from male CFLP mice weighing between 30 to 40 g were dissected on ice, weighed, and homogenized in 10 volumes of 50 mM Tris-HCl buffer (pH 7.4 at 0°-4° C.). The resulting suspension was centrifuged, the supernate was discarded, and the pellet was washed by resuspension in Tris-HCl buffer followed by recentrifugation. The final pellet was resuspended in 20 volumes of […] buffer (pH 7.2 at 23° C.) containing 130 mM NaCl, […], […].
In saturation studies, cerebral cortical membranes were incubated at 23° C. for 120 minutes in a final volume of 500 μL of Hepes incubation buffer (pH 7.2) together with 0.2-20 nM tritiated-pentagastrin (Amersham International, England).
In the displacement experiments, membranes were incubated with a single concentration (2 nM) of ligand, together with increasing concentrations (10^-11 to 10^-6 M) of competitive test compound. In each case, the nonspecific binding was defined as that persisting in the presence of the unlabeled octapeptide CCK26-33 (10^-6 M)
Following incubation, radioactivity bound to membranes was separated from that free in solution by rapid filtration through Whatman GF/B filters and washed three times with 4 mL of ice cold Tris-HCl buffer. Filters from samples incubated with tritiated-pentagastrin were placed in polyethylene vials with 4 mL of scintillation cocktail, and the radioactivity was estimated by liquid scintillation spectrometry (efficiency 47-52%). […]
Saturation curves for specific tritiated-pentagastrin binding to mouse cortical membranes were analyzed by the methods of Scatchard (Ann. New York Acad. Sci. 51:660-672, 1949), and Hill (J. Physiol. 40:IV-VIII, 1910), to provide estimates for the maximum number of binding sites (Bmax) and the equilibrium dissociation constant (Ka)
In displacement experiments, inhibition curves were analyzed by either logit-log plots or the iterative curve fitting computer program ALLFIT (DeLean, Munson, and Redbard, 1978) to provide estimates of the IC50 and nH (apparent Hill coefficient values). […]
The inhibition constant (Ki) of the test compound was then calculated according to the Cheng-Prusoff equation: [formula] where [L] is the concentration of radiolabel and Ka is the equilibrium dissociation constant. […]

[2] = system: CCK-A receptor; assay: CCK-A receptor binding
Description: as §1
In displacement experiments, inhibition curves were analyzed by either logit-log plots or the iterative curve fitting computer program ALLFIT (DeLean, Munson, and Redbard, 1978) to provide estimates of the IC50 and nH (apparent Hill coefficient values). (IC50 values were defined as the concentration of test compound required to produce 50% inhibition of specific binding).
The inhibition constant (Ki) of the test compound was then calculated according to the Cheng-Prusoff equation: [formula] where [L] is the concentration of radiolabel and Ka is the equilibrium dissociation constant.
The Ki values for several representative compounds of the present invention are present in Table 1.
The following table represents the CCK-A and CCK-B receptor binding affinities of the compounds. [drawing 34]
The testing procedures are disclosed in Hays, et al., Neuropeptides 1:53-62, 1980; and Satuer, et al., Science 208:1155-1156, 1980.

[3] = system: CCK-B receptors; conditions: words; cited from earlier work
[4] = system: CCK-A receptors; conditions: words; cited from earlier work
[5] = 2 nM tritiated-pentagastrin, Hepes buffer pH 7.2, 23° C., read-out: CCK-B (Ki)

## CC(C)Oc1cccc(-n2c(CNC(=O)OCc3ccccc3)nc3ccccc3c2=O)c1
[1]; [5]
  Ki: 0.62 µM

## CC(C)Oc1cccc(-n2c(CNC(=O)c3cnc4ccccc4n3)nc3ccccc3c2=O)c1 [1 -- 2-Quinoxolinyl, 2-Quinoxalinecarboxamide, N-[[1,2-dihydro-3-[3-(1-methylethoxy)phenyl]-4-oxo-2-quinazolinyl]methyl]]
[1]; [5]
  Ki: 0.842 µM
[2]; @ 10 μM
  CCK-A, % @ 10 μM (in the Ki column): 29%

## CCOC(=O)c1cccc(NC(=O)NCc2nc3ccccc3c(=O)n2-c2cccc(OC(C)C)c2)c1 [1 NH 3-COOEtPh, Benzoic Acid, 3-[[[3,4-dihydro-3-[3-(1-methylethoxy)phenyl]-4-oxo-2-quinazolinyl]methyl]amino]carbonylamino-, ethyl ester]
[2]; read-out: CCK-A (Ki)
  Ki: 1.47 µM

## Cc1cccc(NC(=O)NCc2nc3ccccc3c(=O)n2-c2cccc(OC(C)C)c2)c1 [1 NH 3-MePh, Urea, N-[[3,4-dihydro-3-[3-(1-methylethoxy)phenyl]-4-2-quinazolinyl]methyl]-N-(3-methylphenyl)]
[2]; read-out: CCK-A (Ki)
  Ki: 1.64 µM

## CC(C)Oc1cccc(-n2c(CNC(=O)Nc3ccc(Br)cc3)nc3ccccc3c2=O)c1 [1 NH 4-BrPh, Urea, N-(4-bromophenyl)-N-[[3,4-dihydro-3-[3-(1-methylethoxy)phenyl]-4-2-quinazolinyl]methyl]]
[2]; read-out: CCK-A (Ki)
  Ki: 0.984 µM

## CC(C)Oc1cccc(-n2c(CNC(=O)NCc3ccc(Br)cc3)nc3ccccc3c2=O)c1 [1 NH 4-BrPhCH2]
[2]; read-out: CCK-A (Ki)
  Ki: 3.1 µM

## CC(C)Oc1cccc(-n2c(CNC(=O)Nc3ccc(C(F)(F)F)cc3)nc3ccccc3c2=O)c1 [1 NH 4-CF3 Ph]
[2]; read-out: CCK-A (Ki)
  Ki: 0.674 µM

## CC(C)Oc1cccc(-n2c(CNC(=O)Nc3ccc([N+](=O)[O-])cc3)nc3ccccc3c2=O)c1 [1 NH 4-NO2 Ph]
[2]; read-out: CCK-A (Ki)
  Ki: 0.385 µM

## Cc1ccc(S(=O)(=O)NC(=O)NCc2nc3ccccc3c(=O)n2-c2cccc(OC(C)C)c2)cc1 [1 NHSO2 4-CH3 Ph, Benzenesulfonamide, N-[[[[3,4-dihydro-[3-(1-methylethoxy)phenyl]-4-oxo-2-quinazolinyl]methyl]amino]carboxy]-4-methyl]
[1]; bound printed in μM in the Ki, nM column, read-out: CCK-B Ki (cell in μM)
  Ki: > 1 µM
[2]; bound printed in μM in the Ki, nM column, read-out: CCK-A Ki (cell in μM)
  Ki: > 1 µM

## CC(C)Oc1cccc(-n2c(CCNC(=O)Nc3ccc(Br)cc3)nc3ccccc3c2=O)c1 [2 NH 4-BrPh, Urea, N-(4-bromophenyl)-N'-[2-[3,4-dihydro-3-[3-(1-methylethoxy)phenyl]-4-oxo-2-quinazolinyl]ethyl]]
[2]; read-out: CCK-A (Ki)
  Ki: 1.63 µM

## CC(C)Oc1cccc(-n2c(CCNC(=O)OCc3ccccc3)nc3ccccc3c2=O)c1 [2 O PhCH2]
[1]; [5]
  Ki: 0.768 µM
[2]; read-out: CCK-A (Ki)
  Ki: 2.77 µM

## CCK-4
[3]
  affinity for CCK-B receptors: high affinity
[4]
  affinity for CCK-A receptors: lower affinity

## CCK-8S: sulfated octapeptide (CCK-8S)
[3]
  affinity for CCK-B receptors: high affinity
[4]
  affinity for CCK-A receptors: high affinity

## CCK-8d: corresponding desulfated fragment CCK-8d
[4]
  affinity for CCK-A receptors: lower affinity

## gastrin: gastrin peptide sharing a common carboxy terminal pentapeptide sequence with CCK
[3]
  affinity for CCK-B receptors: high affinity
[4]
  affinity for CCK-A receptors: lower affinity
